Source: patent US11178873B2, “Cyclic N-carboxamide compounds useful as herbicides” (FMC CORPORATION, priority 2015, dated 2021)

Legend:
Format in all cases: in vivo
[1] = test system: barnyardgrass (Echinochloa crus-galli); experiment: Test A preemergence, barnyardgrass; conditions: 0 to 100 scale, 0 no effect, 100 complete control
Summary of the method: (§1)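 Compounds are applied in a non-phytotoxic solvent with surfactant, either preemergence as a directed soil spray or postemergence at the one- to two-leaf stage. Plants grow in loam–sand soil in a greenhouse, and injury is scored visually against untreated controls after about 10 d (0–100 scale).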

kochia (Kochia scoparia) [2] = experiment: Test A preemergence, kochia; conditions: 0 to 100 scale, 0 no effect, 100 complete control
Summary of the method: as §1

[3] = test system: ragweed (common ragweed, Ambrosia elatior); experiment: Test A preemergence, ragweed; conditions: 0 to 100 scale, 0 no effect, 100 complete control
Summary of the method: as §1

[4] = test system: ryegrass, Italian (Italian ryegrass, Lolium multiflorum); experiment: Test A preemergence, ryegrass, Italian; conditions: 0 to 100 scale, 0 no effect, 100 complete control
Summary of the method: as §1

[5] = test system: foxtail, giant (giant foxtail, Setaria faberii); experiment: Test A preemergence, foxtail, giant; conditions: 0 to 100 scale, 0 no effect, 100 complete control
Summary of the method: as §1

[6] = test system: pigweed (Amaranthus retroflexus); experiment: Test A preemergence, pigweed; conditions: 0 to 100 scale, 0 no effect, 100 complete control
Summary of the method: as §1

[7] = test system: barnyardgrass (Echinochloa crus-galli); experiment: Test A postemergence, barnyardgrass; conditions: 0 to 100 scale, 0 no effect, 100 complete control
Summary of the method: as §1

kochia (Kochia scoparia) [8] = experiment: Test A postemergence, kochia; conditions: 0 to 100 scale, 0 no effect, 100 complete control
Summary of the method: as §1

[9] = test system: ragweed (common ragweed, Ambrosia elatior); experiment: Test A postemergence, ragweed; conditions: 0 to 100 scale, 0 no effect, 100 complete control
Summary of the method: as §1

[10] = test system: ryegrass, Italian (Italian ryegrass, Lolium multiflorum); experiment: Test A postemergence, ryegrass, Italian; conditions: 0 to 100 scale, 0 no effect, 100 complete control
Summary of the method: as §1

[11] = test system: foxtail, giant (giant foxtail, Setaria faberii); experiment: Test A postemergence, foxtail, giant; conditions: 0 to 100 scale, 0 no effect, 100 complete control
Summary of the method: as §1

[12] = test system: wheat (Triticum aestivum); experiment: Test A postemergence, wheat; conditions: 0 to 100 scale, 0 no effect, 100 complete control
Summary of the method: as §1

corn (Zea mays) = experiment: Test A postemergence, corn; conditions: 0 to 100 scale, 0 no effect, 100 complete control
Summary of the method: as §1

[13] = test system: pigweed (Amaranthus retroflexus); experiment: Test A postemergence, pigweed; conditions: 0 to 100 scale, 0 no effect, 100 complete control
Summary of the method: as §1

[14] = test system: blackgrass (Alopecurus myosuroides); experiment: Test A postemergence, blackgrass; conditions: 0 to 100 scale, 0 no effect, 100 complete control
Summary of the method: as §1

[15] = test system: galium (catchweed bedstraw, Galium aparine); experiment: Test A postemergence, galium; conditions: 0 to 100 scale, 0 no effect, 100 complete control
Summary of the method: as §1

[16] = test system: barnyardgrass (Echinochloa crus-galli); experiment: Test B flooded paddy test, barnyardgrass; conditions: Flood, 250 g ai/ha; scale 0 to 100 (0 no effect, 100 complete control); 13 to 15 d
Summary of the method: (§2)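 Ratings use a 0-100 visual scale, where 100 is complete control, and compare treated plants with controls after 13 to 15 d of greenhouse growth. Compound went straight into paddy water kept 3 cm over the soil surface, applied to seedlings at the 2-leaf stage.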

[17] = test system: ducksalad (Heteranthera limosa); experiment: Test B flooded paddy test, ducksalad; conditions: Flood, 250 g ai/ha; scale 0 to 100 (0 no effect, 100 complete control); 13 to 15 d
Summary of the method: as §2

rice (Oryza sativa) = experiment: Test B flooded paddy test, rice; conditions: Flood, 250 g ai/ha; scale 0 to 100 (0 no effect, 100 complete control); 13 to 15 d
Summary of the method: as §2

[18] = test system: sedge, umbrella (small-flower umbrella sedge, Cyperus difformis); experiment: Test B flooded paddy test, sedge, umbrella; conditions: Flood, 250 g ai/ha; scale 0 to 100 (0 no effect, 100 complete control); 13 to 15 d
Summary of the method: as §2

Structure (SMILES)	Plant response rating, Barnyardgrass ([1]; 31 g ai/ha)	Plant response rating, Barnyardgrass ([1]; 125 g ai/ha)	Plant response rating, Kochia (kochia (Kochia scoparia) [2]; 31 g ai/ha)	Plant response rating, Kochia (kochia (Kochia scoparia) [2]; 125 g ai/ha)	Plant response rating, Ragweed ([3]; 31 g ai/ha)	Plant response rating, Ragweed ([3]; 125 g ai/ha)	Plant response rating, Ryegrass, Italian ([4]; 31 g ai/ha)	Plant response rating, Ryegrass, Italian ([4]; 125 g ai/ha)	Plant response rating, Foxtail, Giant ([5]; 31 g ai/ha)	Plant response rating, Foxtail, Giant ([5]; 125 g ai/ha)	Plant response rating, Pigweed ([6]; 31 g ai/ha)	Plant response rating, Pigweed ([6]; 125 g ai/ha)	Plant response rating, Barnyardgrass ([7]; 31 g ai/ha)	Plant response rating, Barnyardgrass ([7]; 125 g ai/ha)	Plant response rating, Kochia (kochia (Kochia scoparia) [8]; 31 g ai/ha)	Plant response rating, Kochia (kochia (Kochia scoparia) [8]; 125 g ai/ha)	Plant response rating, Ragweed ([9]; 31 g ai/ha)	Plant response rating, Ragweed ([9]; 125 g ai/ha)	Plant response rating, Ryegrass, Italian ([10]; 31 g ai/ha)	Plant response rating, Ryegrass, Italian ([10]; 125 g ai/ha)	further results
CN1CC(c2cccc(C(F)(F)F)c2)N(C(=O)Nc2ccccc2F)C1=O (stereo not drawn) [Compound 16]	0	30	0	0	0	0	0	0	30	70	0	0	0	10	0	0	0	0	0	0	Plant response rating, Foxtail, Giant ([11]; 31 g ai/ha): 0; Plant response rating, Foxtail, Giant ([11]; 125 g ai/ha): 10; Plant response rating, Wheat ([12]; 31 g ai/ha): 0; Plant response rating, Wheat ([12]; 125 g ai/ha): 0; Plant response rating, Corn (corn (Zea mays); 31 g ai/ha): 0; Plant response rating, Corn (corn (Zea mays); 125 g ai/ha): 0; Plant response rating, Pigweed ([13]; 31 g ai/ha): 0; Plant response rating, Pigweed ([13]; 125 g ai/ha): 0; Plant response rating, Blackgrass ([14]; 31 g ai/ha): 0; Plant response rating, Blackgrass ([14]; 125 g ai/ha): 0; Plant response rating, Galium ([15]; 31 g ai/ha): 0; Plant response rating, Galium ([15]; 125 g ai/ha): 0; Plant response rating, Barnyardgrass [16]: 0; Plant response rating, Ducksalad [17]: 0; Plant response rating, Rice (rice (Oryza sativa)): 0; Plant response rating, Sedge, Umbrella [18]: 0
CN1CC(c2cccc(C(F)(F)F)c2)N(C(=O)Nc2ccc(F)cc2F)C1=O (stereo not drawn) [Compound 17]	0	50	0	20	0	0	0	0	50	80	0	0	0	10	0	0	0	0	0	0	Plant response rating, Foxtail, Giant ([11]; 31 g ai/ha): 0; Plant response rating, Foxtail, Giant ([11]; 125 g ai/ha): 10; Plant response rating, Wheat ([12]; 31 g ai/ha): 0; Plant response rating, Wheat ([12]; 125 g ai/ha): 0; Plant response rating, Corn (corn (Zea mays); 31 g ai/ha): 0; Plant response rating, Corn (corn (Zea mays); 125 g ai/ha): 0; Plant response rating, Pigweed ([13]; 31 g ai/ha): 0; Plant response rating, Pigweed ([13]; 125 g ai/ha): 0; Plant response rating, Blackgrass ([14]; 31 g ai/ha): 0; Plant response rating, Blackgrass ([14]; 125 g ai/ha): 0; Plant response rating, Galium ([15]; 31 g ai/ha): 0; Plant response rating, Galium ([15]; 125 g ai/ha): 0; Plant response rating, Barnyardgrass [16]: 0; Plant response rating, Ducksalad [17]: 40; Plant response rating, Rice (rice (Oryza sativa)): 0; Plant response rating, Sedge, Umbrella [18]: 0
CN1CC(c2cccc(C(F)(F)F)c2)N(C(=O)Nc2cccc(F)c2F)C1=O (stereo not drawn) [Compound 18]	20	70	0	0	0	0	0	0	70	80	0	0	10	30	0	0	0	0	0	0	Plant response rating, Foxtail, Giant ([11]; 31 g ai/ha): 10; Plant response rating, Foxtail, Giant ([11]; 125 g ai/ha): 50; Plant response rating, Wheat ([12]; 31 g ai/ha): 0; Plant response rating, Wheat ([12]; 125 g ai/ha): 0; Plant response rating, Corn (corn (Zea mays); 31 g ai/ha): 0; Plant response rating, Corn (corn (Zea mays); 125 g ai/ha): 0; Plant response rating, Pigweed ([13]; 31 g ai/ha): 0; Plant response rating, Pigweed ([13]; 125 g ai/ha): 0; Plant response rating, Blackgrass ([14]; 31 g ai/ha): 0; Plant response rating, Blackgrass ([14]; 125 g ai/ha): 0; Plant response rating, Galium ([15]; 31 g ai/ha): 0; Plant response rating, Galium ([15]; 125 g ai/ha): 0; Plant response rating, Barnyardgrass [16]: 0; Plant response rating, Ducksalad [17]: 65; Plant response rating, Rice (rice (Oryza sativa)): 0; Plant response rating, Sedge, Umbrella [18]: 0
